How the values were obtained:
M. aeruginosa = assay: Repeat exposure of M. aeruginosa to BADA at 25-200 ppb; format: cell-based
Method: (§1) The experiment was conducted for 14 days and was initiated using 100 mL BG-11 medium contained in 200 mL flasks. […] The experiment was initiated by exposing the algae to 0.2, 0.4, 0.8, 1.0, 1.2, 1.4, 1.8, and 2.0 ppm (mg/L) as BADA, 0.5 Cu/L Cutrine®-Plus. The solution was heated in a water bath and diluted to 70 mg/L using warmed deionized water. Cutrine®-Plus stock solution was made at 50 mg/L using deionized water. Three replicates of each exposure concentration, along with three replicates of an untreated reference were tested. Each sample was maintained at room temperature with 12-hours of light and 12-h dark photoperiod. The chlorophyll a concentrations of Microcystis aeruginosa through the 14 day exposure after exposure to concentrations of BADA and Cutrine®-Plus. The results are shown in TABLES 5, and 6, which show the chlorophyll a concentration and the cell density, respectively.
Example 5 was repeated but using the N,N-bis-(3-aminopropyl) dodecylamine in the amounts of 200 parts per billion ((ppb) 0.2 ppm), 100 parts per billion ((ppb) 0.1 ppm), 75 parts per billion ((ppb) 0.075 ppm), 50 parts per billion ((ppb) 0.05 ppm), and 25 parts per billion ((ppb) 0.025 ppm). A control example was also repeated since the M. aeruginosa was from a different culture and the test were conducted at different times. The results are shown in TABLES 8, and 9, which show the chlorophyll a concentration and the cell density, respectively.

Microcystis aeruginosa = assay: 14-day flask exposure of Microcystis aeruginosa to BADA; format: cell-based
Method: as §1

CCCCCCCCCCCCN(CCCN)CCCN [BADA, N,N-bis-(3-aminopropyl) dodecylamine]
Cell density of M. aeruginosa cultures (M. aeruginosa; BADA 25 ppb, day 0 (initial)): 3.8E+05 cells/mL | In vivo chlorophyll a concentrations of M. aeruginosa cultures (M. aeruginosa; BADA 25 ppb, day 0 (initial)): 1.20 µg/L | In vivo chlorophyll a concentrations of M. aeruginosa cultures (M. aeruginosa; BADA 25 ppb, day 1): 0.67 µg/L | In vivo chlorophyll a concentrations of M. aeruginosa cultures (M. aeruginosa; BADA 25 ppb, day 5): 0.64 µg/L | In vivo chlorophyll a concentrations of M. aeruginosa cultures (M. aeruginosa; BADA 25 ppb, day 7): 1.58 µg/L | In vivo chlorophyll a concentrations of M. aeruginosa cultures (M. aeruginosa; BADA 25 ppb, day 12): 7.91 µg/L | Cell density of M. aeruginosa cultures (M. aeruginosa; BADA 25 ppb, day 14): 7.3E+06 cells/mL | In vivo chlorophyll a concentrations of M. aeruginosa cultures (M. aeruginosa; BADA 25 ppb, day 14): 10.06 µg/L | Cell density of M. aeruginosa cultures (M. aeruginosa; BADA 50 ppb, day 0 (initial)): 3.8E+05 cells/mL | In vivo chlorophyll a concentrations of M. aeruginosa cultures (M. aeruginosa; BADA 50 ppb, day 0 (initial)): 1.20 µg/L | In vivo chlorophyll a concentrations of M. aeruginosa cultures (M. aeruginosa; BADA 50 ppb, day 1): 0.48 µg/L | In vivo chlorophyll a concentrations of M. aeruginosa cultures (M. aeruginosa; BADA 50 ppb, day 5): 0.04 µg/L | In vivo chlorophyll a concentrations of M. aeruginosa cultures (M. aeruginosa; BADA 50 ppb, day 7): 0.06 µg/L | In vivo chlorophyll a concentrations of M. aeruginosa cultures (M. aeruginosa; BADA 50 ppb, day 12): 0.71 µg/L | Cell density of M. aeruginosa cultures (M. aeruginosa; BADA 50 ppb, day 14): 1.5E+06 cells/mL | In vivo chlorophyll a concentrations of M. aeruginosa cultures (M. aeruginosa; BADA 50 ppb, day 14): 1.93 µg/L | Cell density of M. aeruginosa cultures (M. aeruginosa; BADA 75 ppb, day 0 (initial)): 3.8E+05 cells/mL | In vivo chlorophyll a concentrations of M. aeruginosa cultures (M. aeruginosa; BADA 75 ppb, day 0 (initial)): 1.20 µg/L | In vivo chlorophyll a concentrations of M. aeruginosa cultures (M. aeruginosa; BADA 75 ppb, day 1): 0.50 µg/L | In vivo chlorophyll a concentrations of M. aeruginosa cultures (M. aeruginosa; BADA 75 ppb, day 5): 0.05 µg/L | In vivo chlorophyll a concentrations of M. aeruginosa cultures (M. aeruginosa; BADA 75 ppb, day 7): 0.05 µg/L | In vivo chlorophyll a concentrations of M. aeruginosa cultures (M. aeruginosa; BADA 75 ppb, day 12): 0.60 µg/L | Cell density of M. aeruginosa cultures (M. aeruginosa; BADA 75 ppb, day 14): 1.4E+06 cells/mL | In vivo chlorophyll a concentrations of M. aeruginosa cultures (M. aeruginosa; BADA 75 ppb, day 14): 1.77 µg/L | Cell density of M. aeruginosa cultures (M. aeruginosa; BADA 100 ppb, day 0 (initial)): 3.8E+05 cells/mL | In vivo chlorophyll a concentrations of M. aeruginosa cultures (M. aeruginosa; BADA 100 ppb, day 0 (initial)): 1.20 µg/L | In vivo chlorophyll a concentrations of M. aeruginosa cultures (M. aeruginosa; BADA 100 ppb, day 1): 0.55 µg/L | In vivo chlorophyll a concentrations of M. aeruginosa cultures (M. aeruginosa; BADA 100 ppb, day 5): 0.03 µg/L | In vivo chlorophyll a concentrations of M. aeruginosa cultures (M. aeruginosa; BADA 100 ppb, day 7): 0.03 µg/L | In vivo chlorophyll a concentrations of M. aeruginosa cultures (M. aeruginosa; BADA 100 ppb, day 12): 0.31 µg/L | Cell density of M. aeruginosa cultures (M. aeruginosa; BADA 100 ppb, day 14): 8.7E+05 cells/mL | In vivo chlorophyll a concentrations of M. aeruginosa cultures (M. aeruginosa; BADA 100 ppb, day 14): 0.98 µg/L | Cell density of M. aeruginosa cultures (M. aeruginosa; BADA 200 ppb, day 0 (initial)): 3.8E+05 cells/mL | In vivo chlorophyll a concentrations of M. aeruginosa cultures (M. aeruginosa; BADA 200 ppb, day 0 (initial)): 1.20 µg/L | In vivo chlorophyll a concentrations of M. aeruginosa cultures (M. aeruginosa; BADA 200 ppb, day 1): 0.50 µg/L | In vivo chlorophyll a concentrations of M. aeruginosa cultures (M. aeruginosa; BADA 200 ppb, day 5): 0.03 µg/L | In vivo chlorophyll a concentrations of M. aeruginosa cultures (M. aeruginosa; BADA 200 ppb, day 7): 0.02 µg/L | In vivo chlorophyll a concentrations of M. aeruginosa cultures (M. aeruginosa; BADA 200 ppb, day 12): 0.05 µg/L | Cell density of M. aeruginosa cultures (M. aeruginosa; BADA 200 ppb, day 14): 1.4E+05 cells/mL | In vivo chlorophyll a concentrations of M. aeruginosa cultures (M. aeruginosa; BADA 200 ppb, day 14): 0.16 µg/L | Chlorophyll a content of M. aeruginosa compared to untreated control algae (Microcystis aeruginosa; 0.2 to 2.0 ppm (mg/L), by 15 days after start, p<0.01): reduced | Cell density of M. aeruginosa cultures (Microcystis aeruginosa; BADA 0.2 ppm, day 0 (initial)): 5.7E+05 cells/mL | In vivo chlorophyll a concentrations of M. aeruginosa cultures (Microcystis aeruginosa; BADA 0.2 ppm, day 0 (initial)): 0.90 µg/L | In vivo chlorophyll a concentrations of M. aeruginosa cultures (Microcystis aeruginosa; BADA 0.2 ppm, day 3): 0.28 µg/L | Cell density of M. aeruginosa cultures (Microcystis aeruginosa; BADA 0.2 ppm, day 7): <1E+04 cells/mL | In vivo chlorophyll a concentrations of M. aeruginosa cultures (Microcystis aeruginosa; BADA 0.2 ppm, day 7): 0.06 µg/L | Cell density of M. aeruginosa cultures (Microcystis aeruginosa; BADA 0.2 ppm, day 14): <1E+04 cells/mL | In vivo chlorophyll a concentrations of M. aeruginosa cultures (Microcystis aeruginosa; BADA 0.2 ppm, day 14): 0.02 µg/L | Cell density of M. aeruginosa cultures (Microcystis aeruginosa; BADA 0.4 ppm, day 0 (initial)): 5.7E+05 cells/mL | In vivo chlorophyll a concentrations of M. aeruginosa cultures (Microcystis aeruginosa; BADA 0.4 ppm, day 0 (initial)): 0.90 µg/L | In vivo chlorophyll a concentrations of M. aeruginosa cultures (Microcystis aeruginosa; BADA 0.4 ppm, day 3): 0.23 µg/L | Cell density of M. aeruginosa cultures (Microcystis aeruginosa; BADA 0.4 ppm, day 7): <1E+04 cells/mL | In vivo chlorophyll a concentrations of M. aeruginosa cultures (Microcystis aeruginosa; BADA 0.4 ppm, day 7): 0.03 µg/L | Cell density of M. aeruginosa cultures (Microcystis aeruginosa; BADA 0.4 ppm, day 14): <1E+04 cells/mL | In vivo chlorophyll a concentrations of M. aeruginosa cultures (Microcystis aeruginosa; BADA 0.4 ppm, day 14): 0.02 µg/L | Cell density of M. aeruginosa cultures (Microcystis aeruginosa; BADA 0.8 ppm, day 0 (initial)): 5.7E+05 cells/mL | In vivo chlorophyll a concentrations of M. aeruginosa cultures (Microcystis aeruginosa; BADA 0.8 ppm, day 0 (initial)): 0.90 µg/L

Reference: patent US20180249707A1, “METHOD OF CONTROLLING ALGAE IN A BODY OF WATER” (priority 2013, published 2018)
